According to patent publication EP4623906A1, “OPHTHALMIC FORMULATION COMPRISING PYRIDINE PHENYL COMPOUND, PREPARATION METHOD THEREFOR, AND USE THEREOF” (Zhuhai United Laboratories Co., Ltd., priority 2022, dated 2024):

Legend:
Format in all cases: physicochemical
[1] = Solubilization trials of compound of formula (IX) with different solubilizing agents, grinding and heating (Examples 1-11)
Protocol: Examples 1-11 were prepared according to the specific processes in Table 1. […]

[2] = Preliminary stability of eye drops with antimicrobial preservatives, in the dark at 25°C and 40°C for 5 days (Examples 52, 55, 56); details: Compound of Formula (IX), 0 h
Protocol: According to the prescription ratio in Table 11, the active compound of formula (IX) was weighed, and dispersed in isopropanol with stirring until the solution was clear. HP-β-CD was slowly added under stirring, until the solution was clear. Purified water in the prescribed ratio was slowly added to the isopropanol solution under stirring, and stirred for 1 hour to obtain a clear solution. The above solution was freeze-dried in a vacuum freeze dryer to obtain a loose white freeze-dried powder. Freeze-dried powder of the inclusion compound was dissolved in a re-dissolving medium, and successively filtered through 0.45 µm and 0.22 µm mixed filter membrane to obtain active compound eye drops, and filled in a sample packaging of 2 mL per bottle, to obtain eye drops.
For multi-dose packaged eye drops, the addition of antimicrobial preservatives is needed to avoid microbial contamination during use. The effects of two antimicrobial preservatives, benzalkonium chloride and chlorhexidine acetate, on prescription stability were investigated through Examples 52, 55, and 56. The preliminary stability of eye drops from Example 52, Example 55, and Example 56 was investigated by placing them in the dark at 25°C and 40°C for 5 days.

[3] = Preliminary compatibility of packaging materials, in the dark at 25°C (Examples 52-54); design: unit not given here; details: Compound of Formula (IX) itself
Protocol: Examples 53 and 54 were packaged in low-density polyethylene (PE) pharmaceutical eye drops bottles, brown polyester (PET) pharmaceutical eye drops bottles and ampoules, respectively. They were placed in the dark at 25°C to investigate the preliminary compatibility of the packaging materials.

Solubility in water [1]: insoluble or almost insoluble | Peak at retention time 19.6 min, relative retention time 1.00 [2]: 93.14 | Peak at retention time 20.2 min, relative retention time 1.03 [2]: 0.16 | Peak at retention time 21.1 min, relative retention time 1.08 [2]: 0.39 | Peak at retention time 21.5 min, relative retention time 1.10 [2]: 0.41 | Peak at retention time 23.8 min, relative retention time 1.21 [2]: 0.11 | Peak at retention time 24.0 min, relative retention time 1.22 [2]: 2.41 | Peak at retention time 24.5 min, relative retention time 1.25 [2]: 0.50 | Peak at retention time 24.7 min, relative retention time 1.26 [2]: 0.25 | Peak at retention time 24.8 min, relative retention time 1.27 [2]: 0.12 | Peak at retention time 25.6 min, relative retention time 1.31 [2]: 0.09 | Peak at retention time 26.0 min, relative retention time 1.33 [2]: 0.15 | Peak at retention time 26.2 min, relative retention time 1.34 [2]: 2.15 | Peak at retention time 28.3 min, relative retention time 1.44 [2]: 0.13 | Impurity RRT 0.44 [3]: 0.06 | Impurity RRT 1.17 [3]: 0.05 | Impurity RRT 1.29 [3]: 0.20 | Impurity RRT 1.34 [3]: 0.10 | Impurity RRT 1.55 [3]: 0.07 | Impurity RRT 1.59 [3]: 0.02 | Impurity RRT 1.66 [3]: 0.04 | Impurity RRT 1.75 [3]: 0.04 | Impurity RRT 1.81 [3]: 0.03 | Impurity RRT 1.84 [3]: 0.25 | Impurity RRT 1.89 [3]: 0.04 | Impurity RRT 1.97 [3]: 0.03 | Impurity RRT 2.10 [3]: 0.09 | Impurity RRT 2.19 [3]: 0.21 | Impurity RRT 2.23 [3]: 0.02 | Impurity RRT 2.27 [3]: 0.03 | Total impurity [3]: 1.03
SMILES: CC(C)(O)c1ccc(-c2cnc(C(C)(C)O)c(N)c2)cc1N [Compound of Formula (IX)]
